Reference: US20120003298A1, “METHODS FOR INDUCING AN IMMUNE RESPONSE” (priority 2010, published 2012)

Columns and labels:
human PBMCs = assay: IL-6 secretion in human PBMCs, two batches of Compound A and SC12 (Example 4); format: cell-based; conditions: 5 months storage in DMSO at 4° C.
Procedure: PBMCs were purified from two donors and plated into 96 well plates at 2×10^5 cells/well in RPMI media including human 2% heat inactivated AB serum, glutamine, Pen-strep and β-mercaptoethanol. The cells were treated with TLR7 agonists for 24 h in 4 doses. The conditioned media was removed for ELISA analyses for IL-6, and the EC50 value determined for each compound and each batch.
All compounds were tested in four concentrations (10-1-0.1-0.01 micromolar).
Concentrations of IL-6 were determined by ELISA from R&D Systems using the Microsoft Excel software. The results were analyzed in Graph Pad Prism in order to prepare dose-response curves, and for determination of EC50 values.

[1] = In vivo pharmacodynamics, serum cytokines after intravenous injection; design: species or system mouse; conditions: 200 nmol intravenously
Procedure: For in vivo pharmacodynamic experiments, 6- to 8-week old C57BU6 mice were intravenously injected with the unconjugated and phospholipid-conjugated TLR7 agonists (200 nmol). Sera were separated and kept at −20° C. until use. The levels of cytokines in the sera were measured by Luminex bead microassay. The minimum detection levels of IL-6 and TNF-alpha were 5 pg/mL and 10 pg/mL, respectively.

[2] = Intrabladder application, serum cytokines (Luminex) and histology; format: in vivo, mouse
Procedure: Female C57BU6 mice were anesthetized with ketamine/xylazine. The 50 microliter formulated compounds were intravesically administered for twenty minutes at each treatment. The treatment schedule and doses are in Table 35 and 36, respectively. The levels of cytokines (IL-6, IL-12, and TNF-alpha) were determined by Luminex assay. Paraffin sections were prepared and H & E staining performed.

[3] = system: AY-27 rat bladder cancer cell-line; assay: Orthotopic rat bladder cancer model, intravesical instillation; conditions: of 14 per group
NFκB-bla Raw 264.7 Cells = assay: NFκB activation in NFκB-bla Raw 264.7 cells; format: cell-based, mouse; conditions: FIG. 2
Procedure: NFκB-bla Raw 264.7 Cells were purchased from Life Technologies Corporation (Carlsbad, Calif.). […] Drugs were dissolved and diluted in DMSO to obtain an initial stock solution (10 or 50 mM). Drugs were then serially diluted (usually 1:3 or 1:5) in DMSO. The stock solutions were further diluted in Assay Medium and added to cells already in each well.

Inv-Myc mice = assay: Mouse skin cancer model (Inv-Myc mice, Tamoxifen induction), topical creams; format: in vivo
Procedure: The mice used are essentially discussed in Pelengaris, S., et al., (1999) Molecular Cell 3:565-77. Activation of c-myc in this model, such as by the application of Tamoxifen, leads to increased keratinocyte proliferation, reversible epidermal hyperplasia, and papillomatosis changes.
Sex-matched 8-15 week old Inv-Myc mice were used for the study. The mice were shaved on the back 24 hours before the daily Tamoxifen induction (1 mg/200 microliters ethanol, day 0 to 7) to an area 5×3 cm^2. […] Mice were sacrificed on day 10. […] Sera were collected when mice were sacrificed and 2 hours after the first cream application in some instances.

[4] = system: myeloid CD11c+/CD123− DCs; assay: FACS, myeloid DC activation in whole blood; format: cell-based, human; conditions: 24 hours; 0.1 and 0.5 uM
Procedure: The FACS analysis for donor 1 and donor 2 was made on another day than donor 3. The compound concentrations were as follows:
B cell activation: 2 and 10 uM mDC/pDC: 0.1 and 0.5 uM
The FACS analysis was used to identify whether the test compounds could induce activation of B cells, and two different subsets of dendritic cells, namely the myeloid CD11c+/CD123− DCs and the plasmacytoid CD11c−/CD123+DCs. The following markers were studied to identify the activation status of the different subsets:
The FACS staining was performed according to the manufacturer's instructions. Lysis of red blood cells was performed before FACS staining in order to minimize auto-florescence. To include as many B cells and DCs in the study as possible the FACS analyses were performed on 500,000 cells in total for each staining. A P1 gate was set only to include relevant cells on FSC vs. SSC (see FIGS. 12-15). The results of the individual analysis were present as Mean Fluorescence Intensity (MFI) values, for certain activation marker in a given gate setting, represent the actual cell subset. The isotype background values have been used to set the gates so that a maximum at 2% of unspecific stained cells could be found in the positive gates.
The analysis of myeloid DCs was based on HLA-DR+/CD11c+/CD123-cells, thus all analyzed cells was included in the HLA-DR+(P3) gate and CD11c+/CD123− (Q4) gate (see gates in FIGS. 13-15).

OVA specific Ig = assay: Adjuvanticity with ovalbumin (OVA), subcutaneous immunization; format: in vivo, mouse
Description: For the adjuvanticity experiments, mice were subcutaneously immunized with 20 pg ovalbumin (OVA) with 10 nmol or 100 nmol (TLR7 agonist equivalent dose) per mouse in various TLR7 conjugates on days 0 and 7. Sera were collected on days 0, 7, 14, 21, 28, 42, and 56. Mice immunized with saline or OVA mixed with vehicle served as controls. Mice were sacrificed on day 56.
Immunization occurs on day 0 and 7. Serum collection day is on 0, 7, 14, 21, 28, 42 and 56 days.

RAW.264 cells = assay: Intracellular uptake in RAW.264 cells, LC-MS; format: in vitro ADME; conditions: 10 microM
Procedure: 5×10^6 RAW.264 cells were adhered overnight in 10 cm tissue culture dishes. […] […] Supernatant (2 ml) and cells (pellets) were collected by trypsinization and frozen at […] for subsequent analysis by LC-MS.

[5] = Stability on storage by HPLC (solid or chloroform solution; temperature, light); conditions: for HPLC % at RRT = 1: SC12
Procedure: At this point, a stability study was conducted on batch CH730/16/8g.
The samples were analyzed at t=0 and after 20 days.

[6] = Solubility observations in the text

CCCCCCCCCCCC(=O)OCC(COP(=O)(O)OCCNC(=O)c1ccc(Cn2c(=O)[nH]c3c(N)nc(OCCOC)nc32)cc1)OC(=O)CCCCCCCCCCC (centres unmarked) [SC12]
activity after storage (human PBMCs): have not lost activity
time course of cytokine induction [1]: lower but sustained cytokine induction than the free ligand
serum proinflammatory cytokine levels ([1]; C57BL/6 mice): induced similar levels of the proinflammatory cytokines IL-6, IL-12 and TNF-alpha
serum IL-12 ([2]; day 0, 2 hour time point, intravesical about 207 nmoles in 50 μl): elevated levels of IL-12
bladder histology, cell infiltration ([2]; day 7): immune cell infiltration in the bladder
Number of rat bladders Tumor free [3]: 6
Number of rat bladders with pT2 Tumor [3]: 7
Number of rat bladders with pTa Tumor [3]: 1
Tumor free, share of group [3]: 42.9%
pT2 Tumor, share of group [3]: 50.0%
pTa Tumor, share of group [3]: 7.1%
activity in NFkB RAW cells (NFκB-bla Raw 264.7 Cells): more active than the free pharmocophore
serum IL-6 (Inv-Myc mice; 2 hours after the first administration): less IL-6 than Aldara
Ki67 positive cells (Inv-Myc mice; Experiment 1): decreased Ki67 positive cells
gross appearance of skin (Inv-Myc mice; Experiment 1): redness and scaling
gross appearance of skin (Inv-Myc mice; Experiment 2): smooth and soft
skin thickness (Inv-Myc mice; Experiment 2): decreased development of skin thickness
acanthosis (Inv-Myc mice; cream every other day, days 0-8): reduction in acanthosis
eczematous reaction (Inv-Myc mice; mouse, in vivo): less eczematous reaction than Aldara (Imiquimod) cream
CCR7 expression in mDCs (MFI, words) [4]: less potent stimulator of CCR7 expression
CD80 expression in mDCs (MFI, words) [4]: noteworthy CD80 expression in all three donors
CD86 expression in mDCs (MFI, words) [4]: weak CD86 expression in donor 2 and 3, but not in donor 1
adjuvant potency, Th1 immune response (OVA specific Ig; 100 nmoles SC12 equivalent to 10 nmoles compound A): 10 times less potent than compound A or compound A*
antigen specific IgG2a (OVA specific Ig; OVA 20 μg with 10 or 100 nmoles, days 0 and 7): significantly higher than the immunization with OVA alone
OVA-specific IgG1 (OVA specific Ig; mouse, in vivo): not found to induce high levels of OVA-specific IgG1
Intracellular Concentration % of total (RAW.264 cells; Incubation 1 hours): 18.5 % of total
Intracellular Concentration % of total (RAW.264 cells; Incubation 6 hours): 20.6 % of total
Intracellular Concentration % of total (RAW.264 cells; Incubation 18 hours): 21.4 % of total
HPLC % at RRT = 1 ([5]; Solid, RT and light, t = 20 days): RRT = 1: 87.8%
HPLC % at RRT = 1 ([5]; Solid, external T and light, t = 20 days): RRT = 1: 84.0%
HPLC % at RRT = 1 ([5]; Solution in CHCl3, RT and light, t = 0): RRT = 1: 90.3%
HPLC % at RRT = 1 ([5]; Solution in CHCl3, RT and light, t = 20 days): RRT = 1: 88.0%
stability compared with compound A ([5]; storage 20 days): more stable than compound A
solubility ([6]; P450 assays, especially in ACN): low solubility
precipitation in bacterial mutation assay ([6]; toxicity test, two highest concentrations (5000 and 1580 micrograms/plate), end of incubation): Precipitation
